Read-outs that look alike come from different tables or passages of the source.
Assays:
HRV 14 [1] = assay: high-throughput cytopathic effect inhibitory assay (CPE), HeLa cells infected with HRV 14; assay type: cell-based, human rhinovirus; details: HRV 14, HeLa cells, second series of experiments
HRV 14 [2] = assay: residual infectiousness (TCID50/ml) by virus titration, HeLa cells infected with HRV 14; assay type: cell-based, human rhinovirus; details: HRV 14, HeLa cells
MDCK cells = details: dog
HRV 14 [3] = assay: plaque reduction assay, HeLa cells infected with HRV 14; assay type: cell-based, human rhinovirus; details: for Plaque reduction rel. inhibition: HRV 14, HeLa cells, M.O.I. 0.0004; for Rel. total inhibition: HRV 14, plaque reduction and residual infectiousness combined
influenza A virus = assay type: cell-based; details: MDCK cells
HRV 2 = assay type: cell-based, human rhinovirus; details: HRV 2, HeLa cells, 72 hours after infection
[4] = dilution 1:2 of 0.003125% (W/V)
[5] = dilution 1:4 of 0.003125% (W/V)
[6] = dilution 1:8 of 0.003125% (W/V)
[7] = dilution 1:16 of 0.003125% (W/V)
[8] = dilution 1:32 of 0.003125% (W/V)

**Q.** For `Cc1cc(C(C)(C)C)c(O)c(C)c1CC1=NCCN1` [oxymetazoline], which CPE inhibition (HRV 14 [1]; [4]) is on record?
**A.** 50.5%

**Q.** And the CPE inhibition (HRV 14 [1]; [5])?
**A.** 53.6%

**Q.** And the CPE inhibition (HRV 14 [1]; [6])?
**A.** 37.5%

**Q.** And the CPE inhibition (HRV 14 [1]; [7])?
**A.** 5.9%

**Q.** What about the “Residual infectiousness rel. inhibition” value (HRV 14 [2]; [4]) of the same compound?
**A.** 33.33%

**Q.** What about the “Residual infectiousness rel. inhibition” value (HRV 14 [2]; [5]) of the same compound?
**A.** 20.83%

**Q.** What about the “Residual infectiousness rel. inhibition” value (HRV 14 [2]; [6]) of the same compound?
**A.** 18.75%

**Q.** And the “Residual infectiousness rel. inhibition” value (HRV 14 [2]; [7])?
**A.** 18.75%

**Q.** And the “Residual infectiousness rel. inhibition” value (HRV 14 [2]; [8])?
**A.** 12.50%

**Q.** And the “active-ingredient concentration at which no effects which reduce the metabolism of the cells arise (non-cytotoxic concentration)” value (MDCK cells)?
**A.** 0.005 % (W/V)

**Q.** And the “Plaque reduction rel. inhibition” value (HRV 14 [3]; [4])?
**A.** 44.26%

**Q.** What about the “Plaque reduction rel. inhibition” value (HRV 14 [3]; [5]) of the same compound?
**A.** 32.98%

**Q.** What about the “Plaque reduction rel. inhibition” value (HRV 14 [3]; [6]) of the same compound?
**A.** 25.74%

**Q.** What about the “Plaque reduction rel. inhibition” value (HRV 14 [3]; [7]) of the same compound?
**A.** 17.66%

**Q.** What about the “Plaque reduction rel. inhibition” value (HRV 14 [3]; [8]) of the same compound?
**A.** 14.26%

**Q.** And the Rel. total inhibition (HRV 14 [3]; [4])?
**A.** 38.79

**Q.** What about the Rel. total inhibition (HRV 14 [3]; [5]) of the same compound?
**A.** 26.91

**Q.** What about the Rel. total inhibition (HRV 14 [3]; [6]) of the same compound?
**A.** 22.25

**Q.** And the Rel. total inhibition (HRV 14 [3]; [7])?
**A.** 18.20

**Q.** And the Rel. total inhibition (HRV 14 [3]; [8])?
**A.** 13.38

**Q.** And the CPE inhibition (influenza A virus; dilution 1:2 of 0.005% (W/V))?
**A.** 52.8%

**Q.** And the CPE inhibition (influenza A virus; dilution 1:4 of 0.005% (W/V))?
**A.** 35.5%

**Q.** What about the CPE inhibition (influenza A virus; dilution 1:8 of 0.005% (W/V)) of the same compound?
**A.** 23.1%

**Q.** What about the CPE inhibition (influenza A virus; dilution 1:16 of 0.005% (W/V)) of the same compound?
**A.** 9.1%

**Q.** What about the CPE inhibition (HRV 2; [4]) of the same compound?
**A.** 40.5%

**Q.** What about the CPE inhibition (HRV 2; [5]) of the same compound?
**A.** 23.2%

— patent US20080108685A1, “Novel Use for Alpha Sympathomimetics Having a 2-Imidazoline Structure” (priority 2004, published 2008)
